Patent publication US12570957B2, “Isolated naive pluripotent stem cells and methods of generating same” (Yeda Research and Development Co. Ltd., priority 2013, dated 2026)

Columns and labels:
Experiment in all cases: Pluripotency maintenance after supplementation of inhibitors or growth factors
naive mESCs = format: cell-based, mouse; conditions: mESCs in 2i/LIF
Method: (§1) Shown are histograms depicting colony formation of pluripotent cell lines in various media. Cell populations were equally divided and plated on gelatin/vitronectin coated plates in the indicated growth medium in which these cell lines are normally maintained (mouse naive cells in a medium containing 2i/LIF, naive hESCs/iPSCs in a WIS-NHSM medium, mouse EpiSCs and human primed ESCS/iPSCs in a KSR/bFGF/TGFβmedium). 36 hours later the wells were supplemented with the indicated inhibitors or growth factors. After 14 days (2 passages), wells were analyzed for Oct4-GFP pluripotency marker expression by FACS, to determine the relative percentage of pluripotent colonies. Pluripotent cell frequency was normalized to an internal control, as indicated by “Growth medium” only on the far left column (For naive cells growth medium was WIS-NHSM, and for primed cells was conventional KSR/bFGF/TGFβcontaining medium as specified in methods). […]
(§2) FIGS. 108A-108C—Signaling and functional characteristics of human naive pluripotency. […] After 14 days (2 passages), wells were analyzed by OCT4 immunostaining of direct detection of OCT4-GFP pluripotency reporter expression, to determine the relative percentage of undifferentiated pluripotent cells. […] After 20 days, colonies positive for OCT4 pluripotency markers were counted and normalized to colonies from cells electroporated with empty vector. […]

naive hESCs/hiPSCs = format: cell-based; conditions: naive human cells in WIS-NHSM
Method: as §1, §2

primed hESCs/hiPSCs = format: cell-based; conditions: primed human cells
Method: as §1, §2

## CC(C)(C)c1nc2c3ccc(F)cc3c3c(=O)[nH]ccc3c2[nH]1 [JAKi]
Naive mESCs
  response of pluripotent state: readily differentiate
Naive hESCs/hiPSCs
  response of pluripotent state: differentiated
Primed hESCs/hiPSCs
  response of pluripotent state: resistant
